Measurements as given in US12281126B2, “Inhibitors of cyclin-dependent kinase 7 and uses thereof” (Dana-Farber Cancer Institute, Inc., priority 2018, dated 2025).

How the values were obtained:
Assay type in all cases: biochemical
[1] = molecular target: CDK2 (Homo sapiens (Human), UniProt P24941); assay: Invitrogen kinase assay, inhibition of CDK2; settings: co-factor cyclin A; read-out: IC50 against CDK2
Method: (§1) Compounds of the disclosure were assayed using Invitrogen CDK7 assay against a variety of kinases. Exemplary results are presented as IC50 values (see Table 1 and Table 2). The co-factors used for each kinase in the assays were as follows: CDK7: cyclin H and MNAT1; CDK2: cyclin A; CDK9: cyclin T1.

[2] = molecular target: CDK7 (Homo sapiens (Human), UniProt P50613); assay: Invitrogen CDK7 assay, inhibition of CDK7; settings: co-factors cyclin H and MNAT1; read-out: IC50 against CDK7
Method: as §1

[3] = molecular target: CDK9 (Homo sapiens (Human), UniProt P50750); assay: Invitrogen kinase assay, inhibition of CDK9; settings: co-factor cyclin T1; read-out: IC50 against CDK9
Method: as §1

CDK7, sequence (P50613 whole entry): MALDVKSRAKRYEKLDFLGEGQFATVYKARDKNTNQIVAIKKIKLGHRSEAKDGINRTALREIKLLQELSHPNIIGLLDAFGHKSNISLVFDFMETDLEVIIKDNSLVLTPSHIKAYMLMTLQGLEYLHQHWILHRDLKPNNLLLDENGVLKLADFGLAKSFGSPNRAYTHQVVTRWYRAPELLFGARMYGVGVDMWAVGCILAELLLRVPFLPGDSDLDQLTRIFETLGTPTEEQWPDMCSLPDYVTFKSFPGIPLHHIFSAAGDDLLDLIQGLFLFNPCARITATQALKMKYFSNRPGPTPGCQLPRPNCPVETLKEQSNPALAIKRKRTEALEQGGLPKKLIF
CDK7, sequence (P51946 whole entry partner): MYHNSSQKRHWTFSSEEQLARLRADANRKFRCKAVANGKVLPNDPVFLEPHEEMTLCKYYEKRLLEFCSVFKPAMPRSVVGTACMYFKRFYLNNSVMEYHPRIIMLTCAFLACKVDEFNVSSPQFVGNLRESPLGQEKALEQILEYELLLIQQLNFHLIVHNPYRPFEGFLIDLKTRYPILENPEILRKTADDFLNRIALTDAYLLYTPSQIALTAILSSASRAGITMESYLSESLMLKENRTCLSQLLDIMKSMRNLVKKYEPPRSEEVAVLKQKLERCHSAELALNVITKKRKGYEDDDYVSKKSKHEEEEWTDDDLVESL
CDK7, sequence (P51948 whole entry partner): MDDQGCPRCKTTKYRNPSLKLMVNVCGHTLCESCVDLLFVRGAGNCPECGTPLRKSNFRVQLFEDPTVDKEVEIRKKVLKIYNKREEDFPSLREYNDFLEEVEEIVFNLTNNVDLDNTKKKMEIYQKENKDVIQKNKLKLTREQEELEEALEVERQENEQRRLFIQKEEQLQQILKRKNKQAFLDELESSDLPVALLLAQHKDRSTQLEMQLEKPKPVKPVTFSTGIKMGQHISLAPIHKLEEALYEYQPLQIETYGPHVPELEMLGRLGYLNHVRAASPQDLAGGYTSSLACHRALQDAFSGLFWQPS
CDK9, sequence (P50750 whole entry): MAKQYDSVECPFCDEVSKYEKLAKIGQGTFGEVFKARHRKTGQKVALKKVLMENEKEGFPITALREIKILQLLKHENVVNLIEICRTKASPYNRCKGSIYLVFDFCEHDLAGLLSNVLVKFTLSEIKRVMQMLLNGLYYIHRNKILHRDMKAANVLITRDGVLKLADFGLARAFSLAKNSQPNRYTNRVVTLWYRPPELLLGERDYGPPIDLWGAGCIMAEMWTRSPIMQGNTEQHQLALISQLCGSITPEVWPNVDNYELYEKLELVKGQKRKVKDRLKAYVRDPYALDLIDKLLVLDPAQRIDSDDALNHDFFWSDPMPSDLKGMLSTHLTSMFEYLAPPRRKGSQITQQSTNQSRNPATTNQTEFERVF
CDK9, sequence (O60563 whole entry partner): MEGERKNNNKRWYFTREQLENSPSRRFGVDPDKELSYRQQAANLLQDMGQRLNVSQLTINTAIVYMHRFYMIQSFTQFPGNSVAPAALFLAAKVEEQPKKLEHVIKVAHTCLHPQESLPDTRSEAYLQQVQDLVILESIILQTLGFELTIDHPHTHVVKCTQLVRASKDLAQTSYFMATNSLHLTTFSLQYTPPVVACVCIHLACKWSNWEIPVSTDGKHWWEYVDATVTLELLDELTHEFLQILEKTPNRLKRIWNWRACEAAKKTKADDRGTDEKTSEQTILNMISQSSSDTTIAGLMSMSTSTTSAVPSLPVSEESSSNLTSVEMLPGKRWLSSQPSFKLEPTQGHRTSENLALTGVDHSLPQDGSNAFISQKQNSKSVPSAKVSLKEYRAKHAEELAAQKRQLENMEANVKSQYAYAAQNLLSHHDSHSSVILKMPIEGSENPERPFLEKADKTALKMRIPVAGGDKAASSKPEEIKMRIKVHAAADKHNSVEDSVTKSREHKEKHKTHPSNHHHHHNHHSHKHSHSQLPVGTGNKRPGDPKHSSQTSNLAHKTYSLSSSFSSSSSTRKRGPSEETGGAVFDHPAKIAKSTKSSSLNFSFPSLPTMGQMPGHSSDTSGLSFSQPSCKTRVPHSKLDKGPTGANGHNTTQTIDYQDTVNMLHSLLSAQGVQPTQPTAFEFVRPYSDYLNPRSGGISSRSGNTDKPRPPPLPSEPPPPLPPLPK

Q: Which IC50 [1] does the source give for `CN(C)C[C@@H](NC(=O)N1Cc2c(Nc3ccnc(C(F)(F)F)n3)n[nH]c2C1(C)C)C1CCOCC1` [Compound 208, (S)—N-(2-(dimethylamino)-1-(tetrahydro-2H-pyran-4-yl)ethyl)-6,6-dimethyl-3-((2-(trifluoromethyl)pyrimidin-4-yl)amino)-4,6-dihydropyrrolo[3,4-c]pyrazole-5(1H)-carboxamide] here?
A: The IC50 was 4520 nM.

Q: And the IC50 [2]?
A: Its IC50 is 10.8 nM.

Q: What about the IC50 [3] of the same compound?
A: Its IC50 is over 10000 nM.

Q: Which IC50 [1] does the source give for `C=CC(=O)Nc1ccc(C(=O)Nc2n[nH]c3c2CN(C(=O)N[C@H]2CCCN(C)C2)C3(C)C)cc1` [Compound 210, (S)-3-(4-acrylamidobenzamido)-6,6-dimethyl-N-(1-methylpiperidin-3-yl)-4,6-dihydropyrrolo[3,4-c]pyrazole-5(1H)-carboxamide] here?
A: The IC50 was 161 nM.

Q: What about the IC50 [2] of the same compound?
A: The IC50 was 48.4 nM.

Q: And the IC50 [3]?
A: The IC50 was 1740 nM.

Q: Which results are given for `C=CC(=O)Nc1ccc(C(=O)Nc2n[nH]c3c2CN(C(=O)NC2(CN(C)C)CC2)C3(C)C)cc1` [Compound 065, 3-(4-acrylamidobenzamido)-N-(1-((dimethylamino)methyl)cyclopropyl)-6,6-dimethyl-4,6-dihydropyrrolo[3,4-c]pyrazole-5(1H)carboxamide]?
A: IC50 [1]: > 10000 nM; IC50 [2]: 61.1 nM; IC50 [3]: > 10000 nM

Q: `Cc1nc(Nc2n[nH]c3c2CN(C(=O)N[C@H](CN(C)C)C2CCOCC2)C3(C)C)c2sccc2n1` [Compound 201, (S)—N-(2-(dimethylamino)-1-(tetrahydro-2H-pyran-4-yl)ethyl)-6,6-dimethyl-3-((2-methylthieno[3,2-d]pyrimidin-4-yl)amino)-4,6-dihydropyrrolo[3,4-c]pyrazole-5(1H)-carboxamide] was tested. Which IC50 [1] did it give?
A: Its IC50 is over 10000 nM.

Q: And the IC50 [2]?
A: Its IC50 is 39.1 nM.

Q: What about the IC50 [3] of the same compound?
A: Its IC50 is over 10000 nM.

Q: Which results are given for `C=CC(=O)Nc1ccc(C(=O)Nc2n[nH]c3c2CN(C(=O)N[C@H](CN(C)C)C2CCOCC2)C3(C)C)cc1` [Compound 205, (S)-3-(4-acrylamidobenzamido)-N-(2-(dimethylamino)-1-(tetrahydro-2H-pyran-4-yl)ethyl)-6,6-dimethyl-4,6-dihydropyrrolo[3,4-c]pyrazole-5(1H)-carboxamide]?
A: IC50 [1]: > 370 nM; IC50 [2]: 12.8 nM; IC50 [3]: 4010 nM

Q: With `Cc1nc(Nc2n[nH]c3c2CN(C(=O)N[C@H](CN(C)C)C2CCOCC2)C3(C)C)c2ccsc2n1` [Compound 200, (S)—N-(2-(dimethylamino)-1-(tetrahydro-2H-pyran-4-yl)ethyl)-6,6-dimethyl-3-((2-methylthieno[2,3-d]pyrimidin-4-yl)amino)-4,6-dihydropyrrolo[3,4-c]pyrazole-5(1H)-carboxamide] as the compound, how does the IC50 [1] read?
A: Its IC50 is over 10000 nM.

Q: What about the IC50 [2] of the same compound?
A: Its IC50 is 18.5 nM.

Q: What about the IC50 [3] of the same compound?
A: The IC50 was over 10000 nM.

Q: What does the source list for `C=CC(=O)Nc1ccc2c(Nc3n[nH]c4c3CN(C(=O)N[C@H](CN(C)C)C3CCOCC3)C4(C)C)nccc2c1` [Compound 202, (S)-3-((6-acrylamidoisoquinolin-1-yl)amino)-N-(2-(dimethylamino)-1-(tetrahydro-2H-pyran-4-yl)ethyl)-6,6-dimethyl-4,6-dihydropyrrolo[3,4-c]pyrazole-5(1H)-carboxamide]?
A: IC50 [1]: > 1110 nM; IC50 [2]: 69 nM; IC50 [3]: > 10000 nM

Q: For `C=CC(=O)Nc1cnc(Nc2n[nH]c3c2CN(C(=O)N[C@H](CN(C)C)C2CCOCC2)C3(C)C)nc1` [Compound 206, (S)-3-((5-acrylamidopyrimidin-2-yl)amino)-N-(2-(dimethylamino)-1-(tetrahydro-2H-pyran-4-yl)ethyl)-6,6-dimethyl-4,6-dihydropyrrolo[3,4-c]pyrazole-5(1H)-carboxamide], which IC50 [1] is on record?
A: Its IC50 is over 10000 nM.

Q: And the IC50 [2]?
A: The IC50 was 732 nM.

Q: What about the IC50 [3] of the same compound?
A: Its IC50 is over 10000 nM.

Q: For `C=CC(=O)Nc1ccc(C(=O)Nc2n[nH]c3c2CN(C(=O)NC(CN(C)C)C2CCOC2)C3(C)C)cc1` (stereo not drawn) [Compound 079, 3-(4-acrylamidobenzamido)-N-(2-(dimethylamino)-1-(tetrahydrofuran-3-yl)ethyl)-6,6-dimethyl-4,6-dihydropyrrolo[3,4-c]pyrazole-5(1H)-carboxamide], which IC50 [1] is on record?
A: Its IC50 is over 10000 nM.

Q: What about the IC50 [2] of the same compound?
A: The IC50 was 190 nM.

Q: What about the IC50 [3] of the same compound?
A: Its IC50 is 1060 nM.

Q: Which IC50 [1] does the source give for `C=CC(=O)Nc1ccc(Nc2n[nH]c3c2CN(C(=O)N[C@H](CN(C)C)C2CCOCC2)C3(C)C)cc1` [Compound 209, (S)-3-((4-acrylamidophenyl)amino)-N-(2-(dimethylamino)-1-(tetrahydro-2H-pyran-4-yl)ethyl)-6,6-dimethyl-4,6-dihydropyrrolo[3,4-c]pyrazole-5(1H)-carboxamide] here?
A: The IC50 was over 10000 nM.

Q: And the IC50 [2]?
A: The IC50 was 3310 nM.

Q: What about the IC50 [3] of the same compound?
A: The IC50 was over 10000 nM.

Q: Which IC50 [1] does the source give for `C=CC(=O)Nc1cccc2c(Nc3n[nH]c4c3CN(C(=O)N[C@H](CN(C)C)C3CCOCC3)C4(C)C)nccc12` [Compound 203, (S)-3-((5-acrylamidoisoquinolin-1-yl)amino)-N-(2-(dimethylamino)-1-(tetrahydro-2H-pyran-4-yl)ethyl)-6,6-dimethyl-4,6-dihydropyrrolo[3,4-c]pyrazole-5(1H)-carboxamide] here?
A: The IC50 was over 10000 nM.

Q: What about the IC50 [2] of the same compound?
A: The IC50 was 214 nM.

Q: What about the IC50 [3] of the same compound?
A: Its IC50 is over 10000 nM.

Q: What does the source list for `C=CC(=O)Nc1ccc(Nc2n[nH]c3c2CN(C(=O)N[C@H](CN(C)C)C2CCOCC2)C3(C)C)nc1` [Compound 204, (S)-3-((5-acrylamidopyridin-2-yl)amino)-N-(2-(dimethylamino)-1-(tetrahydro-2H-pyran-4-yl)ethyl)-6,6-dimethyl-4,6-dihydropyrrolo[3,4-c]pyrazole-5(1H)-carboxamide]?
A: IC50 [1]: > 10000 nM; IC50 [2]: 407 nM; IC50 [3]: > 10000 nM

Q: Which results are given for `C=CC(=O)Nc1ccc(C(=O)Nc2n[nH]c3c2CN(C(=O)NC2CN(C)Cc4ccccc42)C3(C)C)cc1` (stereo not drawn) [Compound 207, 3-(4-acrylamidobenzamido)-6,6-dimethyl-N-(2-methyl-1,2,3,4-tetrahydroisoquinolin-4-yl)-4,6-dihydropyrrolo[3,4-c]pyrazole-5(1H)-carboxamide]?
A: IC50 [1]: 3410 nM; IC50 [2]: 15.4 nM; IC50 [3]: > 10000 nM
